PubChem BioAssay (NCI)
Where “and” joins values, the source holds several entries; their conditions need not be identical. Equal entries are not always repeated.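 The compound was tested at five concentrations on cells cultured in 96-well plates, with a 48-hour exposure period. At the GI50, growth is halved. Definition used: TGI = concentration required for complete inhibition of growth.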

Columns and labels:
Test in all cases: growth of human tumour cells (NCI), 48 h
SNB-75 CNS = test system: SNB-75 CNS
RPMI-8226 leukemia = test system: RPMI-8226 leukemia
BT-549 breast = test system: BT-549 breast
UACC-257 melanoma = test system: UACC-257 melanoma
MDA-MB-435 = test system: MDA-MB-435
SK-MEL-2 melanoma = test system: SK-MEL-2 melanoma
HCT-15 colon = test system: HCT-15 colon
NCI-H23 lung = test system: NCI-H23 lung
RXF 393 renal = test system: RXF 393 renal
OVCAR-4 ovarian = test system: OVCAR-4 ovarian

## CC(=O)C1COC(O)C1C (configuration not stated)
SNB-75 CNS
  TGI: 70.4 µM
RPMI-8226 leukemia
  TGI: 60 µM
BT-549 breast
  TGI: > 100 µM
UACC-257 melanoma
  TGI: > 100 µM
MDA-MB-435
  TGI: 30.2 µM
SK-MEL-2 melanoma
  TGI: 29.1 µM
HCT-15 colon
  TGI: 44.4 µM
NCI-H23 lung
  TGI: 31.7 µM

## COc1cc(F)cc([C@@H](CO)NC(=O)[C@@H](C)N2Cc3ccc(-c4nc(NC5CCOCC5)ncc4Cl)cc3C2=O)c1
SNB-75 CNS
  GI50: 12.5 µM
  TGI: 54 µM
RPMI-8226 leukemia
  GI50: 1.83 µM
  TGI: 38.1 µM
RXF 393 renal
  GI50: 0.205 µM
  TGI: 19.8 µM
BT-549 breast
  GI50: 5.43 µM
  TGI: 24.3 µM
UACC-257 melanoma
  GI50: < 0.01 µM
  TGI: 0.0367 µM
MDA-MB-435
  GI50: 0.0347 µM
  TGI: 31.8 µM
OVCAR-4 ovarian
  GI50: 7.91 µM
  TGI: > 91.6 µM
HCT-15 colon
  GI50: 6.08 µM
  TGI: > 86.7 µM
NCI-H23 lung
  GI50: < 0.0133 µM
  TGI: 20.2 µM

## COc1c2c(c(CC=C(C)C)c3oc(=O)c(-c4ccc(O)cc4)c(O)c13)OC(C)(C)C=C2
RPMI-8226 leukemia
  TGI: 75.3 µM
RXF 393 renal
  TGI: 12.4 µM
BT-549 breast
  TGI: > 100 µM
UACC-257 melanoma
  TGI: > 100 µM
MDA-MB-435
  TGI: 45.7 µM
OVCAR-4 ovarian
  TGI: 58 µM
SK-MEL-2 melanoma
  TGI: 52.8 µM
HCT-15 colon
  TGI: 60.7 µM
NCI-H23 lung
  TGI: > 100 µM

## O=C(Nc1ccc2[nH]c(C(=O)N3CC(CCl)c4c3cc([N+](=O)[O-])c3ccccc43)cc2c1)c1cc2ccccc2o1 (configuration not stated)
RPMI-8226 leukemia
  GI50: > 1100 µM
  TGI: > 1100 µM
RXF 393 renal
  TGI: > 1100 µM
BT-549 breast
  GI50: > 1100 µM
  TGI: > 1100 µM
UACC-257 melanoma
  GI50: > 1100 µM
  TGI: > 1100 µM
MDA-MB-435
  GI50: > 1100 µM
  TGI: > 1100 µM
OVCAR-4 ovarian
  GI50: > 1100 µM
  TGI: > 1100 µM
SK-MEL-2 melanoma
  GI50: > 1100 µM
  TGI: > 1100 µM
HCT-15 colon
  GI50: > 1100 µM
  TGI: > 1100 µM
NCI-H23 lung
  GI50: > 1100 µM
  TGI: > 1100 µM

## O=C(/C=C/c1cccc([N+](=O)[O-])c1)c1ccc(O)c(CN2CCN(c3cc4c(cc3F)c(=O)c(C(=O)O)cn4C3CC3)CC2)c1
SNB-75 CNS
  GI50: 1.22 µM
  TGI: 2.51 µM
RPMI-8226 leukemia
  GI50: 0.418 µM
  TGI: 2.82 µM
RXF 393 renal
  GI50: 1.51 µM
  TGI: 2.99 µM
BT-549 breast
  GI50: 1.54 µM
  TGI: 3.31 µM
UACC-257 melanoma
  GI50: 1.69 µM
  TGI: 3.35 µM
MDA-MB-435
  GI50: 1.67 µM
  TGI: 3.21 µM
OVCAR-4 ovarian
  GI50: 1.61 µM
  TGI: 3.07 µM
SK-MEL-2 melanoma
  GI50: 2.35 µM
  TGI: 5.17 µM
NCI-H23 lung
  GI50: 1.81 µM
  TGI: 3.83 µM

## Cc1cc(Oc2cnc(=O)[nH]c2)cs1
SNB-75 CNS
  TGI: > 100 µM
RPMI-8226 leukemia
  TGI: > 100 µM
BT-549 breast
  TGI: > 100 µM
UACC-257 melanoma
  TGI: > 100 µM
MDA-MB-435
  TGI: > 100 µM
SK-MEL-2 melanoma
  TGI: > 100 µM
HCT-15 colon
  TGI: > 100 µM
NCI-H23 lung
  TGI: > 100 µM

## NC(=S)N/N=C/c1ccc(O)cn1
SNB-75 CNS
  GI50: 13.8 µM
  TGI: 60.4 µM and 227 µM
RPMI-8226 leukemia
  GI50: 22.3 µM and 6.64 µM
  TGI: > 1500 µM and 662 µM
RXF 393 renal
  GI50: 20.5 µM and 83.3 µM and 14.6 µM
  TGI: > 1500 µM and 552 µM
BT-549 breast
  TGI: > 670 µM
UACC-257 melanoma
  GI50: 25.6 µM and 34 µM
  TGI: 74.2 µM and 112 µM and 149 µM
MDA-MB-435
  TGI: > 1130 µM
SK-MEL-2 melanoma
  GI50: 12.5 µM and 6.35 µM and 57.8 µM
HCT-15 colon
  GI50: 22.1 µM and 13.3 µM
NCI-H23 lung
  GI50: 3.48 µM

## Cc1ccc(C(=O)N2c3ccccc3N(C)n3cccc3C2CC(=O)O)cc1 (configuration not stated)
SNB-75 CNS
  TGI: > 100 µM
RPMI-8226 leukemia
  TGI: > 100 µM
RXF 393 renal
  TGI: > 100 µM
UACC-257 melanoma
  TGI: > 100 µM
OVCAR-4 ovarian
  TGI: > 100 µM
SK-MEL-2 melanoma
  TGI: > 100 µM
HCT-15 colon
  TGI: > 100 µM
NCI-H23 lung
  TGI: > 100 µM

## COc1cc(C=O)c(-c2cc3c(cc2C2(C)OCCS2)OCO3)c(OC)c1OC (configuration not stated)
SNB-75 CNS
  TGI: 21.3 µM
RPMI-8226 leukemia
  TGI: > 160 µM
RXF 393 renal
  TGI: 46.9 µM
UACC-257 melanoma
  TGI: 43.4 µM
OVCAR-4 ovarian
  TGI: 173 µM
SK-MEL-2 melanoma
  TGI: 47.7 µM
HCT-15 colon
  TGI: 30.2 µM
NCI-H23 lung
  TGI: 92.9 µM

## CCCCCCCC(=O)OCC1OC(n2cc(F)c(=O)[nH]c2=O)C(NC(=O)OCc2ccccc2)C(O)C1O (configuration not stated)
SNB-75 CNS
  TGI: > 100 µM
RPMI-8226 leukemia
  TGI: 91.7 µM
RXF 393 renal
  TGI: > 100 µM
UACC-257 melanoma
  TGI: > 100 µM
OVCAR-4 ovarian
  TGI: > 100 µM
SK-MEL-2 melanoma
  TGI: 53.5 µM
HCT-15 colon
  TGI: > 100 µM
NCI-H23 lung
  TGI: > 100 µM

## CCCOC(=O)N[C@H]1CCc2cc(OC)c(OC)c(OC)c2-c2ccc(SC)c(=O)cc21
SNB-75 CNS
  GI50: < 0.01 µM
  TGI: > 100 µM
RPMI-8226 leukemia
  GI50: < 0.01 µM
  TGI: 8.22 µM
BT-549 breast
  GI50: < 0.01 µM
  TGI: 19.6 µM
UACC-257 melanoma
  GI50: 12.1 µM
  TGI: > 56.3 µM
OVCAR-4 ovarian
  TGI: > 71.5 µM
SK-MEL-2 melanoma
  GI50: 0.463 µM
  TGI: 90.1 µM
HCT-15 colon
  GI50: < 0.01 µM
  TGI: 12 µM
NCI-H23 lung
  GI50: < 0.01 µM
  TGI: > 100 µM

## COc1cc(-c2csc(NC(=O)Nc3cc(C(F)(F)F)cc(C(F)(F)F)c3)n2)cc(OC)c1OC
SNB-75 CNS
  GI50: 2.27 µM
  TGI: 10.6 µM
RPMI-8226 leukemia
  GI50: 0.967 µM
  TGI: 3.76 µM
RXF 393 renal
  GI50: 2.13 µM
  TGI: 6.17 µM
BT-549 breast
  GI50: 2.38 µM
  TGI: 7.84 µM
MDA-MB-435
  GI50: 2.81 µM
  TGI: 10.5 µM
OVCAR-4 ovarian
  GI50: 2.68 µM
  TGI: 17 µM
SK-MEL-2 melanoma
  GI50: 1.66 µM
  TGI: 5.85 µM
HCT-15 colon
  GI50: 2.51 µM
  TGI: 10.9 µM
NCI-H23 lung
  GI50: 2.38 µM
  TGI: 13.2 µM

## COc1ccc(-c2nnc(-c3c(C)n(C)n(-c4ccccc4)c3=O)o2)cc1
SNB-75 CNS
  TGI: > 100 µM
RPMI-8226 leukemia
  TGI: > 100 µM
RXF 393 renal
  TGI: > 100 µM
UACC-257 melanoma
  TGI: > 100 µM
OVCAR-4 ovarian
  TGI: > 100 µM
SK-MEL-2 melanoma
  TGI: > 100 µM
HCT-15 colon
  TGI: > 100 µM
NCI-H23 lung
  TGI: > 100 µM

## O=C1C(Cl)=C(Nc2cccc(O)c2)C(=O)N1Cc1ccc(Cl)cc1
RPMI-8226 leukemia
  GI50: 1.07 µM
  TGI: > 100 µM
RXF 393 renal
  GI50: 3.95 µM
  TGI: > 100 µM
BT-549 breast
  GI50: 2.54 µM
  TGI: 16.6 µM
UACC-257 melanoma
  GI50: 8.18 µM
  TGI: 25 µM
MDA-MB-435
  GI50: 1.22 µM
  TGI: 10.1 µM
OVCAR-4 ovarian
  GI50: 11.2 µM
  TGI: > 100 µM
SK-MEL-2 melanoma
  GI50: 1.83 µM
  TGI: 9.36 µM
NCI-H23 lung
  GI50: 2.17 µM
  TGI: 8.31 µM

## CCn1c2ccc(C(=O)CCCN(C)C)cc2c2cc(C(=O)CCCN(C)C)ccc21
SNB-75 CNS
  TGI: 11.4 µM
RXF 393 renal
  TGI: 4.3 µM
BT-549 breast
  TGI: 12.4 µM
UACC-257 melanoma
  TGI: 14 µM
MDA-MB-435
  TGI: 2.82 µM
OVCAR-4 ovarian
  TGI: 4.17 µM
SK-MEL-2 melanoma
  TGI: 3.97 µM
HCT-15 colon
  TGI: 8.92 µM
NCI-H23 lung
  TGI: 4.29 µM

## N#Cc1ccc(Nc2cnc3ccc(N)cc3n2)cc1
SNB-75 CNS
  TGI: > 100 µM
RPMI-8226 leukemia
  TGI: > 100 µM
RXF 393 renal
  TGI: > 100 µM
UACC-257 melanoma
  TGI: > 100 µM
OVCAR-4 ovarian
  TGI: > 100 µM
SK-MEL-2 melanoma
  TGI: > 100 µM
HCT-15 colon
  TGI: > 100 µM
NCI-H23 lung
  TGI: > 100 µM

## CCCCCCCCC(O)C#CC(N)=O (configuration not stated)
SNB-75 CNS
  TGI: 17.5 µM
RPMI-8226 leukemia
  TGI: 41.1 µM
RXF 393 renal
  TGI: 29.2 µM
UACC-257 melanoma
  TGI: 26.9 µM
OVCAR-4 ovarian
  TGI: 12 µM
SK-MEL-2 melanoma
  TGI: 26.3 µM
HCT-15 colon
  TGI: 30.9 µM
NCI-H23 lung
  TGI: 35.6 µM

## O=c1nc(NC(c2ccccc2)(c2ccccc2)c2ccccc2)ccn1CCO
SNB-75 CNS
  TGI: > 100 µM
RPMI-8226 leukemia
  TGI: > 100 µM
RXF 393 renal
  TGI: > 100 µM
UACC-257 melanoma
  TGI: > 100 µM
OVCAR-4 ovarian
  TGI: > 100 µM
SK-MEL-2 melanoma
  TGI: > 100 µM
HCT-15 colon
  TGI: > 100 µM
NCI-H23 lung
  TGI: > 100 µM

## Cc1ccc(C(=O)N2CCN(C(=O)c3ccc(C)cc3)c3ccccc32)cc1
SNB-75 CNS
  TGI: > 100 µM
RPMI-8226 leukemia
  TGI: > 58.2 µM
RXF 393 renal
  TGI: 8.43 µM
BT-549 breast
  TGI: > 100 µM
UACC-257 melanoma
  TGI: > 100 µM
OVCAR-4 ovarian
  TGI: > 100 µM
SK-MEL-2 melanoma
  TGI: > 39.6 µM
HCT-15 colon
  TGI: > 100 µM
NCI-H23 lung
  TGI: > 100 µM

## CCC(=O)C(C)C(=O)C(=O)C(=O)OC (configuration not stated)
SNB-75 CNS
  TGI: > 100 µM
RPMI-8226 leukemia
  TGI: > 100 µM
RXF 393 renal
  TGI: 99.3 µM
UACC-257 melanoma
  TGI: > 100 µM
OVCAR-4 ovarian
  TGI: > 100 µM
SK-MEL-2 melanoma
  TGI: > 100 µM
HCT-15 colon
  TGI: > 100 µM
NCI-H23 lung
  TGI: > 100 µM
